Test results reported in the supplement of paper PMC10307832.

Legend:
Experiment in all cases: relative viability (nuclei count vs DMSO), 5 days (fraction); higher = more cells survive
Venetoclax + Crizotinib = compound: CC1(C)CCC(CN2CCN(c3ccc(C(=O)NS(=O)(=O)c4ccc(NCC5CCOCC5)c([N+](=O)[O-])c4)c(Oc4cnc5[nH]ccc5c4)c3)CC2)=C(c2ccc(Cl)cc2)C1 [Venetoclax] + C[C@@H](Oc1cc(-c2cnn(C3CCNCC3)c2)cnc1N)c1c(Cl)ccc(F)c1Cl [Crizotinib] (partner 1 µM)
In short: (§1)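 After 5 days of treatment, lung cancer cells in 1536-well plates were fixed and stained in a single step (final 0.05% Triton X-100, 1% formaldehyde, 1 ug/ml Hoechst) and their nuclei counted on 4× images. Treatment had been applied by pin tool the day after seeding as one drug alone or as a fixed anchor-drug dose with five library-drug doses (not always all listed) in √10 steps. Relative viability is the nuclei count of treated wells divided by that of vehicle wells, and values are medians of duplicate plates.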

Venetoclax + Linsitinib = compound: CC1(C)CCC(CN2CCN(c3ccc(C(=O)NS(=O)(=O)c4ccc(NCC5CCOCC5)c([N+](=O)[O-])c4)c(Oc4cnc5[nH]ccc5c4)c3)CC2)=C(c2ccc(Cl)cc2)C1 [Venetoclax] + C[C@]1(O)C[C@@H](c2nc(-c3ccc4ccc(-c5ccccc5)nc4c3)c3c(N)nccn32)C1 [Linsitinib] (partner 1 µM)
In short: as §1

Venetoclax + Foretinib = compound: CC1(C)CCC(CN2CCN(c3ccc(C(=O)NS(=O)(=O)c4ccc(NCC5CCOCC5)c([N+](=O)[O-])c4)c(Oc4cnc5[nH]ccc5c4)c3)CC2)=C(c2ccc(Cl)cc2)C1 [Venetoclax] + COc1cc2c(Oc3ccc(NC(=O)C4(C(=O)Nc5ccc(F)cc5)CC4)cc3F)ccnc2cc1OCCCN1CCOCC1 [Foretinib] (partner 0.25 µM)
In short: as §1

Selumetinib + Pictilisib = compound: Cn1cnc2c(F)c(Nc3ccc(Br)cc3Cl)c(C(=O)NOCCO)cc21 [Selumetinib] + CS(=O)(=O)N1CCN(Cc2cc3nc(-c4cccc5[nH]ncc45)nc(N4CCOCC4)c3s2)CC1 [Pictilisib] (partner 1 µM)
In short: as §1

| Cell Line | relative viability (Venetoclax + Crizotinib; first compound 0.01 µM) | relative viability (Venetoclax + Crizotinib; first compound 0.03162 µM) | relative viability (Venetoclax + Crizotinib; first compound 0.1 µM) | relative viability (Venetoclax + Crizotinib; first compound 0.3162 µM) | relative viability (Venetoclax + Crizotinib; first compound 1 µM) | relative viability (Venetoclax + Linsitinib; first compound 0.01 µM) | relative viability (Venetoclax + Linsitinib; first compound 0.03162 µM) | relative viability (Venetoclax + Linsitinib; first compound 0.1 µM) | relative viability (Venetoclax + Linsitinib; first compound 0.3162 µM) | relative viability (Venetoclax + Linsitinib; first compound 1 µM) | relative viability (Venetoclax + Foretinib; first compound 0.01 µM) | relative viability (Venetoclax + Foretinib; first compound 0.1 µM) | relative viability (Venetoclax + Foretinib; first compound 0.3162 µM) | relative viability (Venetoclax + Foretinib; first compound 1 µM) | relative viability (Selumetinib + Pictilisib; first compound 0.02 µM) | relative viability (Selumetinib + Pictilisib; first compound 0.06325 µM) | relative viability (Selumetinib + Pictilisib; first compound 0.2 µM) | relative viability (Selumetinib + Pictilisib; first compound 0.6325 µM) | relative viability (Venetoclax + Foretinib; first compound 0.03162 µM) |
| --- | --- | --- | --- | --- | --- | --- | --- | --- | --- | --- | --- | --- | --- | --- | --- | --- | --- | --- | --- |
| NCI-H1703 | 0.655 | 0.635 | 0.634 | 1.15 | 0.605 | 0.549 | 0.652 | 0.81 | 0.756 | 0.755 | 0.345 | 0.397 | 0.328 | 0.367 | 0.231 | 0.193 | 0.229 | 0.283 | – |
| NCI-H520 | 0.769 | 0.698 | 0.658 | 0.835 | 0.698 | 1.04 | 0.935 | 0.911 | 0.969 | 0.902 | 0.628 | 0.711 | 0.949 | 0.727 | 0.293 | 0.24 | 0.31 | 0.292 | 0.708 |
| LOU-NH91 | 0.751 | 0.751 | 0.756 | 0.729 | 0.697 | 0.887 | 0.986 | 0.882 | 0.975 | 0.895 | 0.895 | 0.97 | 0.94 | 0.911 | 0.503 | 0.496 | 0.523 | 0.539 | 0.969 |
| LU99A | 0.555 | 0.587 | 0.576 | 0.586 | 0.526 | 0.482 | 0.604 | 0.505 | 0.56 | 0.55 | 0.821 | 0.78 | 0.747 | 0.825 | 0.34 | 0.317 | 0.412 | 0.351 | 0.854 |
